According to PubChem BioAssay (NCI):
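Test compounds were applied to cells in 96-well plates for 48 hours at 5 doses. Definition used: TGI = concentration required for complete inhibition of growth.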

Tests used:
Assay in all cases: growth of human tumour cells (NCI), 48 h
NCI-H226 lung = test system: NCI-H226 lung
RXF 393 renal = test system: RXF 393 renal
DU-145 prostate = test system: DU-145 prostate
K-562 leukemia = test system: K-562 leukemia
MCF7 breast = test system: MCF7 breast
SR leukemia = test system: SR leukemia
786-0 renal = test system: 786-0 renal
NCI-H23 lung = test system: NCI-H23 lung
MDA-N = test system: MDA-N
HCT-116 colon = test system: HCT-116 colon
SF-295 CNS = test system: SF-295 CNS
COLO 205 colon = test system: COLO 205 colon
PC-3 prostate = test system: PC-3 prostate
MDA-MB-231 breast = test system: MDA-MB-231 breast
UO-31 renal = test system: UO-31 renal
A549 NSCLC = test system: A549 NSCLC
LOX IMVI melanoma = test system: LOX IMVI melanoma
HL-60(TB) leukemia = test system: HL-60(TB) leukemia
OVCAR-8 ovarian = test system: OVCAR-8 ovarian
HOP-62 NSCLC = test system: HOP-62 NSCLC
CCRF-CEM leukemia = test system: CCRF-CEM leukemia
SN12C renal = test system: SN12C renal
SF-539 CNS = test system: SF-539 CNS
EKVX NSCLC = test system: EKVX NSCLC
MOLT-4 leukemia = test system: MOLT-4 leukemia
IGROV1 ovarian = test system: IGROV1 ovarian
OVCAR-3 ovarian = test system: OVCAR-3 ovarian
SW-620 colon = test system: SW-620 colon
T-47D breast = test system: T-47D breast
MDA-MB-435 = test system: MDA-MB-435
SK-MEL-5 melanoma = test system: SK-MEL-5 melanoma
M14 melanoma = test system: M14 melanoma
HCC-2998 colon = test system: HCC-2998 colon
NCI-H522 lung = test system: NCI-H522 lung
HCT-15 colon = test system: HCT-15 colon
KM12 colon = test system: KM12 colon
SNB-19 CNS = test system: SNB-19 CNS
SF-268 CNS = test system: SF-268 CNS
UACC-62 melanoma = test system: UACC-62 melanoma
HT29 colon = test system: HT29 colon
CAKI-1 renal = test system: CAKI-1 renal
UACC-257 melanoma = test system: UACC-257 melanoma
SK-MEL-28 melanoma = test system: SK-MEL-28 melanoma
RPMI-8226 leukemia = test system: RPMI-8226 leukemia
MALME-3M melanoma = test system: MALME-3M melanoma
OVCAR-5 ovarian = test system: OVCAR-5 ovarian
SNB-75 CNS = test system: SNB-75 CNS
U251 CNS = test system: U251 CNS
SK-OV-3 ovarian = test system: SK-OV-3 ovarian
NCI/ADR-RES ovarian = test system: NCI/ADR-RES ovarian
TK-10 renal = test system: TK-10 renal
ACHN renal = test system: ACHN renal
HOP-92 NSCLC = test system: HOP-92 NSCLC
A498 renal = test system: A498 renal
NCI-H460 lung = test system: NCI-H460 lung
HS 578T breast = test system: HS 578T breast
OVCAR-4 ovarian = test system: OVCAR-4 ovarian
SK-MEL-2 melanoma = test system: SK-MEL-2 melanoma

## C=C(C)C#CC(O)(C(=O)OC1CCN(C)CC1)C(C)C (centres undefined)
NCI-H226 lung
  TGI: > 100 µM
RXF 393 renal
  TGI: > 100 µM
DU-145 prostate
  TGI: > 100 µM
K-562 leukemia
  TGI: > 100 µM
MCF7 breast
  TGI: > 100 µM
SR leukemia
  TGI: > 100 µM
786-0 renal
  TGI: > 100 µM
NCI-H23 lung
  TGI: > 100 µM
MDA-N
  TGI: > 100 µM
HCT-116 colon
  TGI: > 100 µM
SF-295 CNS
  TGI: > 100 µM
COLO 205 colon
  TGI: > 100 µM
PC-3 prostate
  TGI: > 100 µM
MDA-MB-231 breast
  TGI: > 100 µM
UO-31 renal
  TGI: > 100 µM
A549 NSCLC
  TGI: > 100 µM
LOX IMVI melanoma
  TGI: > 100 µM
HL-60(TB) leukemia
  TGI: > 100 µM
OVCAR-8 ovarian
  TGI: > 100 µM
HOP-62 NSCLC
  TGI: > 100 µM
CCRF-CEM leukemia
  TGI: > 100 µM
SN12C renal
  TGI: > 100 µM
SF-539 CNS
  TGI: > 100 µM
EKVX NSCLC
  TGI: > 100 µM
MOLT-4 leukemia
  TGI: > 100 µM
IGROV1 ovarian
  TGI: > 100 µM
OVCAR-3 ovarian
  TGI: > 100 µM
SW-620 colon
  TGI: > 100 µM
T-47D breast
  TGI: > 100 µM
MDA-MB-435
  TGI: > 100 µM
SK-MEL-5 melanoma
  TGI: > 100 µM
M14 melanoma
  TGI: > 100 µM
HCC-2998 colon
  TGI: > 100 µM
NCI-H522 lung
  TGI: > 100 µM
HCT-15 colon
  TGI: > 100 µM
KM12 colon
  TGI: > 100 µM
SNB-19 CNS
  TGI: > 100 µM
SF-268 CNS
  TGI: > 100 µM
UACC-62 melanoma
  TGI: > 100 µM
HT29 colon
  TGI: > 100 µM
CAKI-1 renal
  TGI: > 100 µM
UACC-257 melanoma
  TGI: > 100 µM
SK-MEL-28 melanoma
  TGI: > 100 µM
RPMI-8226 leukemia
  TGI: > 100 µM
MALME-3M melanoma
  TGI: > 100 µM
OVCAR-5 ovarian
  TGI: > 100 µM
SNB-75 CNS
  TGI: > 100 µM
U251 CNS
  TGI: > 100 µM
SK-OV-3 ovarian
  TGI: > 100 µM
NCI/ADR-RES ovarian
  TGI: 85.6 µM
TK-10 renal
  TGI: > 100 µM
ACHN renal
  TGI: > 100 µM

## C=C[C@@H](OCOCC[Si](C)(C)C)[C@@H](CC)OC(CCCOC(=O)C(C)(C)C)OC (some centres undefined)
NCI-H226 lung
  TGI: 81.6 µM
DU-145 prostate
  TGI: > 100 µM
K-562 leukemia
  TGI: > 100 µM
MCF7 breast
  TGI: 44.9 µM
SR leukemia
  TGI: > 100 µM
HOP-92 NSCLC
  TGI: > 100 µM
A498 renal
  TGI: > 100 µM
786-0 renal
  TGI: 88.5 µM
NCI-H23 lung
  TGI: > 100 µM
MDA-N
  TGI: > 100 µM
HCT-116 colon
  TGI: 52.8 µM
NCI-H460 lung
  TGI: > 100 µM
SF-295 CNS
  TGI: 50.7 µM
COLO 205 colon
  TGI: 95.1 µM
HS 578T breast
  TGI: 99.5 µM
PC-3 prostate
  TGI: > 100 µM
MDA-MB-231 breast
  TGI: > 100 µM
UO-31 renal
  TGI: > 100 µM
A549 NSCLC
  TGI: > 100 µM
HL-60(TB) leukemia
  TGI: 49.6 µM
OVCAR-8 ovarian
  TGI: > 100 µM
HOP-62 NSCLC
  TGI: > 100 µM
CCRF-CEM leukemia
  TGI: 92.8 µM
SN12C renal
  TGI: > 100 µM
EKVX NSCLC
  TGI: 65.4 µM
MOLT-4 leukemia
  TGI: > 100 µM
IGROV1 ovarian
  TGI: > 100 µM
OVCAR-3 ovarian
  TGI: > 100 µM
SW-620 colon
  TGI: 70.1 µM
T-47D breast
  TGI: 56.5 µM
OVCAR-4 ovarian
  TGI: > 100 µM
MDA-MB-435
  TGI: > 100 µM
SK-MEL-5 melanoma
  TGI: > 100 µM
M14 melanoma
  TGI: > 100 µM
HCT-15 colon
  TGI: 50.9 µM
KM12 colon
  TGI: 63 µM
SNB-19 CNS
  TGI: 32.3 µM
SF-268 CNS
  TGI: > 100 µM
UACC-62 melanoma
  TGI: 81.3 µM
HT29 colon
  TGI: > 100 µM
CAKI-1 renal
  TGI: > 100 µM
UACC-257 melanoma
  TGI: > 100 µM
SK-MEL-28 melanoma
  TGI: > 100 µM
RPMI-8226 leukemia
  TGI: > 100 µM
OVCAR-5 ovarian
  TGI: 44.4 µM
SNB-75 CNS
  TGI: > 100 µM
SK-MEL-2 melanoma
  TGI: 52.9 µM
U251 CNS
  TGI: 57.6 µM
SK-OV-3 ovarian
  TGI: > 100 µM
NCI/ADR-RES ovarian
  TGI: > 100 µM
TK-10 renal
  TGI: 78.9 µM
ACHN renal
  TGI: > 100 µM
